Experimental data published in publication PMC5824342 (Bioconjugate Chemistry, 2017).

How the values were obtained:
[1] = LC-MS, previous study of the authors; cited from earlier work
GRPR = GRPR (Homo sapiens, UniProt P30550); assay: Competitive binding assay, displacement of 125I-[Tyr4]BBN on PC-3 cells
Sequence of GRPR (P30550 whole entry): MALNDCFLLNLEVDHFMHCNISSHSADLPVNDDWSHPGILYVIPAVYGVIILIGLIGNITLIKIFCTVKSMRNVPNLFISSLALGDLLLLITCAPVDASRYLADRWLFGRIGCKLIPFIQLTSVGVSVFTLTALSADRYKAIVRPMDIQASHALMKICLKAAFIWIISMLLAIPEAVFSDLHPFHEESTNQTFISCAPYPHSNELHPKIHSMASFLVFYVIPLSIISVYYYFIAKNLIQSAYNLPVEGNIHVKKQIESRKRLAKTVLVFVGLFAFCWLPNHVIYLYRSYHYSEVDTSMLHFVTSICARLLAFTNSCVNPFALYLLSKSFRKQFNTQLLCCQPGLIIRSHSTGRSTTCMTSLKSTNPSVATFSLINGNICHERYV

In the case of `CSCC[C@H](NC(=O)[C@H](CC(C)C)NC(=O)[C@H](Cc1cnc[nH]1)NC(=O)CNC(=O)[C@@H](NC(=O)[C@H](C)NC(=O)[C@H](Cc1c[nH]c2ccccc12)NC(=O)[C@@H](N)CCC(N)=O)C(C)C)C(N)=O` [BBN7–14], the “t1/2 of degradation during incubation in rat hepatocytes” value [1] is listed as 4 min.
For `CSCC[C@H](NC(=O)[C@H](CC(C)C)NC(=O)[C@H](Cc1c[nH]cn1)NC(=O)CNC(=O)[C@@H](NC(=O)[C@H](C)NC(=O)[C@H](Cc1c[nH]c2ccccc12)NC(=O)[C@H](CCC(N)=O)NC(=O)CCCCCNC(=O)CN1CCN(CC(=O)O)CCN(CC(=O)O)CC1)C(C)C)C(N)=O` [NOTA–Aca–BBN7–14], the IC50 (GRPR) was 1.8 ± 0.67 nM.
